In paper doi:10.1101/2024.09.25.614871v2, “CLYBL averts methylmalonyl-CoA mutase inhibition and loss of vitamin B12 by repairing malyl-CoA” (biorxiv, 2024):
Blank lines part the entries; values can stand above or below the compound they belong to.

Legend:
citrate synthase (CS) = biological target: T1, citrate synthase (CS) (Sus scrofa, UniProt P00889); assay: Ellman's reagent at […] nm, inhibition of malyl-CoA thioesterase; format: biochemical; conditions: read-out: % inhibition at highest concentration (100 μM)
T1 construct: commercial native enzyme from porcine heart
T1 sequence (P00889 28-464): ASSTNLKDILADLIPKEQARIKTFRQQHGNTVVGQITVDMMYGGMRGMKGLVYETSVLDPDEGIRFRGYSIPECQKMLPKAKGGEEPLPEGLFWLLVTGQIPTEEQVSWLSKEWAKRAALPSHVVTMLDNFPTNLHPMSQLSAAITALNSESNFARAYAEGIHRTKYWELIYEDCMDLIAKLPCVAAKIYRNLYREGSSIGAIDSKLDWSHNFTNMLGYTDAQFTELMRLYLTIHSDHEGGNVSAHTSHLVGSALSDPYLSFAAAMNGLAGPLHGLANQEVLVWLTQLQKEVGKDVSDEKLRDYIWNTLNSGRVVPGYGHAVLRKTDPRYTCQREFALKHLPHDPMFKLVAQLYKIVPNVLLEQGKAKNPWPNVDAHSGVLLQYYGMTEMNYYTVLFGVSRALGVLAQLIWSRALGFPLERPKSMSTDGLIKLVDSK

[1] = biological target: T2, SUCL (GDP-forming), SUCLG1:SUCLG2 complex (Homo sapiens, UniProt P53597+Q96I99); assay: PK/LDH-coupled NADH consumption; format: biochemical; conditions: 0.6 mM GTP, 0.1 mM CoA, 7 mM MgCl2, pH 7.5, 30 °C
T2 construct: SUCLG1 aa 28-333 with N-terminal His6, SUCLG2 aa 38-420 with C-terminal His6, co-expressed in E. coli, tags kept
T2 sequence (P53597 28-333): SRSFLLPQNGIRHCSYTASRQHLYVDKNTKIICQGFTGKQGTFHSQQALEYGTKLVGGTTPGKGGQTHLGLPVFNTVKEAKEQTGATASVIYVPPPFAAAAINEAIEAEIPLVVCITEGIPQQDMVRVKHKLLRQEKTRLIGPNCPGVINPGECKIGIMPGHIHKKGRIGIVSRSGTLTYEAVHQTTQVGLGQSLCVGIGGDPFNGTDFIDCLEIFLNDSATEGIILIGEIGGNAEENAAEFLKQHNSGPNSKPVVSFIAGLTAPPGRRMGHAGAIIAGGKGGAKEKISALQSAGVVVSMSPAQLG
T2 sequence (Q96I99 38-420): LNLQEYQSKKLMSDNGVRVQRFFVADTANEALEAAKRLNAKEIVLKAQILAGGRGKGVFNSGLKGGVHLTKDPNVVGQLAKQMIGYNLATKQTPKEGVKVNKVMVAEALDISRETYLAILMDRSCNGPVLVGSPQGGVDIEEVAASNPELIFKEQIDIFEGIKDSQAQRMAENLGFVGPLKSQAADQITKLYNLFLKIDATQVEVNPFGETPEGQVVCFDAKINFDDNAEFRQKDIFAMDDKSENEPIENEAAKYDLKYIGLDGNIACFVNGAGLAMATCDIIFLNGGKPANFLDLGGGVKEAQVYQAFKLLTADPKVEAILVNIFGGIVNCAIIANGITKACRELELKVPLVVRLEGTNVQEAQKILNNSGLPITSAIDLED
Source text: PK/LDH-coupled NADH consumption on SUCL (GDP-forming), SUCLG1:SUCLG2 complex

[2] = biological target: T3, SUCL (ADP-forming), SUCLG1:SUCLA2 complex (Homo sapiens, UniProt P53597+Q9P2R7); assay: PK/LDH-coupled NADH consumption; format: biochemical; conditions: 0.6 mM ATP, 0.1 mM CoA, 7 mM MgCl2, pH 7.5, 30 °C
T3 construct: SUCLG1 aa 28-333 with N-terminal His6, SUCLA2 aa 53-463 with C-terminal His6, co-expressed in E. coli, tags kept
T3 sequence (P53597 28-333): as the sequence (P53597 28-333) above
T3 sequence (Q9P2R7 53-463): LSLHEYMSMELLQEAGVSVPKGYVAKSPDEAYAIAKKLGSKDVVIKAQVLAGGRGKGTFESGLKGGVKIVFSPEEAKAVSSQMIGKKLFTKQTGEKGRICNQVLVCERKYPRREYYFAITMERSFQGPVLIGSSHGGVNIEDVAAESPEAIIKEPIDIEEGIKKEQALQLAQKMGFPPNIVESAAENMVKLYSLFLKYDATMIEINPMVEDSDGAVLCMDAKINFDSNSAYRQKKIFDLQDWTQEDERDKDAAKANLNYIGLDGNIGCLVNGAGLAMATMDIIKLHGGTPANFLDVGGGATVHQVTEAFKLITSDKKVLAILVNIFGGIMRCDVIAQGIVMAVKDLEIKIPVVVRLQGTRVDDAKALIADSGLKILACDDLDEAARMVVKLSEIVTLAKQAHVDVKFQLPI
Source text: PK/LDH-coupled NADH consumption on SUCL (ADP-forming), SUCLG1:SUCLA2 complex

[3] = biological target: T4, methylmalonyl-CoA mutase (MCM) (Homo sapiens, UniProt P22033); assay: absorbance spectrum of loaded enzyme; format: binding; conditions: 12.5 μM MCM homodimer, 5 μM adenosylcobalamin, pH 7.5, 30 °C
T4 construct: gene MMUT
T4 sequence (P22033 34-750): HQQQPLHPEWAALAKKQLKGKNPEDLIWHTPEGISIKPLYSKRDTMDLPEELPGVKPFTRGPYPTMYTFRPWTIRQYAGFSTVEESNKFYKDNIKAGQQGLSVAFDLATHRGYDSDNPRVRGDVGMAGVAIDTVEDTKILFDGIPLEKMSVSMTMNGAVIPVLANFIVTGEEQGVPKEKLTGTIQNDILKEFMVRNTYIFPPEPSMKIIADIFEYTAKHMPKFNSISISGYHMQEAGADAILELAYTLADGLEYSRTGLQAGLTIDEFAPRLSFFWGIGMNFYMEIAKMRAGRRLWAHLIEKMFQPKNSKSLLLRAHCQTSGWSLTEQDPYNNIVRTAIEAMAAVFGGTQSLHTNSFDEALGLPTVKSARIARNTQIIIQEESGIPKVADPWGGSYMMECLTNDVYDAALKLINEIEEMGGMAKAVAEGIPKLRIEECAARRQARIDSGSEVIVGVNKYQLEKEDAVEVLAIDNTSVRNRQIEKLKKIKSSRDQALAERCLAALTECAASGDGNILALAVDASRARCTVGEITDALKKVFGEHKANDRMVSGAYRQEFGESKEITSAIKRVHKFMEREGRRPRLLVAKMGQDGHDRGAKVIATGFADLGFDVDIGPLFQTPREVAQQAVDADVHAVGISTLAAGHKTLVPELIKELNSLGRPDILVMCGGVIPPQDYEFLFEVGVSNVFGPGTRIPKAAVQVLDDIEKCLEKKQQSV

CLYBL = biological target: T5, CLYBL (Homo sapiens, UniProt Q8N0X4, I241V); assay: Ellman's reagent at […] nm (thioesterase); format: biochemical; conditions: pH 7.5, 37 °C, 2 mM MgCl2
T5 construct: full-length ORF (340 aa precursor), natural variant Ile241Val, C-terminal Myc-DKK (FLAG) tag, expressed in HEK293FT, anti-FLAG purified
T5 sequence (Q8N0X4 23-340 I241V): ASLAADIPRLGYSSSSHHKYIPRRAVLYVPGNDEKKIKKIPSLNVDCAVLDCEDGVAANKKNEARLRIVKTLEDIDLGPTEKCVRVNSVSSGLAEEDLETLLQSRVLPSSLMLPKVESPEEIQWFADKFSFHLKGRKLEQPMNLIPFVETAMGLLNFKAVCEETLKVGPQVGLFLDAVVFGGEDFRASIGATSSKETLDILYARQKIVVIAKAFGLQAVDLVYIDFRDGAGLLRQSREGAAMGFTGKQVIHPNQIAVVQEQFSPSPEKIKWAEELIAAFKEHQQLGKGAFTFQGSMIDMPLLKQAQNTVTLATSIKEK

[4] = biological target: T4, methylmalonyl-CoA mutase (MCM); assay: succinyl-CoA formation by LC-HRMS/MS; format: biochemical; conditions: read-out: % residual activity at 50 μM
[5] = biological target: T4, methylmalonyl-CoA mutase (MCM); assay: succinyl-CoA formation by LC-HRMS/MS; format: biochemical; conditions: 10 min preincubation, 0.24 μM adenosylcobalamin, 65 μM methylmalonyl-CoA, pH 7.5, 30 °C; coenzyme inactivation to cob(II)alamin; itaconyl-CoA 27% pure, concentrations corrected

inhibition at 100 µM (citrate synthase (CS)): ~30%
Structure (SMILES): CC(=O)SCCNC(=O)CCNC(=O)[C@H](O)C(C)(C)COP(=O)(O)OP(=O)(O)OC[C@H]1O[C@@H](n2cnc3c(N)ncnc32)[C@H](O)[C@@H]1OP(=O)(O)O [ACoA, acetyl-CoA]

remaining activity at 50 µM [4]: < 10%
Structure (SMILES): CC(C)(COP(=O)(O)OP(=O)(O)OC[C@H]1O[C@@H](n2cnc3c(N)ncnc32)[C@H](O)[C@@H]1OP(=O)(O)O)[C@@H](O)C(=O)NCCC(=O)NCCSC(=O)C[C@H](O)C(=O)O [malyl-CoA]
KM (CLYBL): CLYBL actively hydrolyzed malyl-CoA into malate and free CoASH

Second part, the compound before the results:

Structure (SMILES): O=C(O)CCC(=O)O [succinate]
Km [1]: 0.25 ± 0.03 mM
Km [2]: 6.3 ± 1.9 mM

Structure (SMILES): C/C1=C2/[N-][C@H]([C@H](CC(N)=O)[C@@]2(C)CCC(=O)NC[C@@H](C)OP(=O)([O-])O[C@H]2C(O)[C@@H](n3cnc4cc(C)c(C)cc43)O[C@@H]2CO)[C@]2(C)N=C(/C(C)=C3N=C(/C=C4N=C1[C@@H](CCC(N)=O)C\4(C)C)[C@@H](CCC(N)=O)[C@]\3(C)CC(N)=O)[C@@H](CCC(N)=O)[C@]2(C)CC(N)=O.[CH2-][C@H]1O[C@@H](n2cnc3c(N)ncnc32)[C@H](O)[C@@H]1O.[Co+3] (stereo partly shown) [AdoCbl, adenosylcobalamin]
absorbance spectrum of loaded enzyme [3]: conversion of the MCM-bound adenosylcobalamin into cob(II)alamin

Structure (SMILES): C=C(CC(=O)SCCNC(=O)CCNC(=O)[C@H](O)C(C)(C)COP(=O)(O)OP(=O)(O)OC[C@H]1O[C@@H](n2cnc3c(N)ncnc32)[C@H](O)[C@@H]1OP(=O)(O)O)C(=O)O [itaconyl-CoA]
relative activity [5]: Both acyl-CoAs induced a dose-dependent inhibition of MCM (Fig. 5a)
